The target of the experiment is T1, human C5 (Homo sapiens, UniProt P01031).
T1 construct: tissue TCS Biosciences (serum); host or cells: human serum
Kind of experiment: SPR multi-cycle kinetics, binding to C5. The following applies: for fold drop in affinity of alanine mutant: relative to unmodified K8 or K92, SPR multi-cycle kinetics, n = 3. As to the method: Kinetics were measured using a Biacore 8K (GE Healthcare, Amersham, UK) with a CM5 chip, which was prepared as follows: 1-ethyl-3-(−3-dimethylaminopropyl) carbodiimide hydrochloride (EDC)/N-hydroxysuccinimide (NHS) was mixed at 1:1 ratio (flow rate, 10 µL/min; contact time, 30 s), and human C5 at 1 µg/mL in pH 4.5 sodium acetate buffer was injected over flow cell one only (flow rate, 10 µL/min; contact time, 60 s). Final immobilisation levels in the range of 2000–3000 RUs were obtained to yield theoretical Rmax values of ~50–60 RU. […] After each injection, the surface was regenerated with two sequential injections of 2 M MgCl2 (flow rate, 30 µL/min; contact time, 30 s). Binding to the reference surface was subtracted, and the data were fitted to a single-site binding model using Biacore evaluation software.
Table 2.6. Validation of molecular interactions by peptide mutagenesis analysis.
Summary of SPR multi-cycle kinetics

The mark [1] stands for this setting: Biacore 8K, HBS-EP pH 7.4, single-site model, mean of n=3, read-out: mean KD.
[2] abbreviates: pH 7.4, read-out: mean koff, Biacore 8K, HBS-EP pH 7.4, mean of n=3.
Where [3] appears, read: pH 7.4, read-out: mean kon, Biacore 8K, CM5 chip, HBS-EP pH 7.4, mean of n=3.

Like-named read-outs stand apart in the source and are kept apart here. Bridges are numbered along the chain shown (N, C = ends). Where no end group is shown, it is not given here.

A word on the Kd: it is the equilibrium constant for the complex coming apart. Regarding “K92 F26A: alanine mutant of K92 (CPEGWSECGVAIYGYACGRWGCGHALNSGPNISP)”, the Kd runs as follows: under setting [1], 0.0188 µM; (replicate n=1, read-out: KD) 0.0149 µM; (replicate n=2, read-out: KD) 0.0215 µM; (replicate n=3, read-out: KD) 0.0199 µM.

The koff is a measure of how fast the partners let go of each other. Usually kon stands for the rate constant with which the complex forms. For the substance “SVCPDGFDWGYGCAAGSSRFCTAHDWCCYDERADSHTYGFCTGNRVENLYFQ (disulfide 3-28, 13-21, 27-41 (inferred)) [K8 R22A]”, the “fold drop in affinity of alanine mutant” value is “twofold decrease in affinity”. For the same substance, under “Biacore 8K, mean of n=3”, the mean stoich. ratio is 0.27. Moreover, the koff under setting [2] stood at 0.000599 s⁻¹. Moreover, the on-rate (kon) under setting [3] was 54000 M⁻¹ s⁻¹. In addition, for the setting “replicate n=1”, the koff worked out at 0.000565 s⁻¹, the kon was determined as 59200 M⁻¹ s⁻¹ and the stoich. ratio is reported as 0.29. Further, where the note is “replicate n=2”, the koff was 0.000672 s⁻¹, the kon was 53500 M⁻¹ s⁻¹ and the stoich. ratio is 0.24. Moreover, for the setting “replicate n=3”, the off-rate constant (koff) turned out to be 0.000561 s⁻¹, the kon came to 49400 M⁻¹ s⁻¹ and the stoich. ratio is recorded as 0.27.

Take “K92 W21A: alanine mutant of K92 (CPEGWSECGVAIYGYACGRAGCGHFLNSGPNISP)”: the dissociation constant Kd runs as follows: under setting [1], 0.497 µM; (replicate n=1, read-out: KD) 0.437 µM; (replicate n=2, read-out: KD) 0.411 µM; (replicate n=3, read-out: KD) 0.644 µM.

On to “SVCPDGFDWGYGCAAGSSRFCTRHDWCCYDEAADSHTYGFCTGNRVENLYFQ (disulfide 3-28, 13-21, 27-41 (inferred)) [K8 R31A]”, for which the “fold drop in affinity of alanine mutant” value is on record as 715 -fold. The mean stoich. ratio (Biacore 8K, mean of n=3) came out at 0.75. The off-rate (koff) under setting [2] turned out to be 0.00152 s⁻¹. Moreover, under setting [3], the kon worked out at 462 M⁻¹ s⁻¹. Moreover, for the setting “replicate n=1”, the koff stood at 0.00182 s⁻¹, the association rate constant (kon) amounted to 786 M⁻¹ s⁻¹ and the stoich. ratio was 0.36. In addition, for the setting “replicate n=2”, the off-rate (koff) was found to be 0.00125 s⁻¹, the kon was found to be 336 M⁻¹ s⁻¹ and the stoich. ratio is reported as 0.71. For the setting “replicate n=3”, the off-rate constant (koff) was 0.00149 s⁻¹, the kon came out at 263 M⁻¹ s⁻¹ and the stoich. ratio came out at 1.18.
